One data set is described as follows: In vivo pharmacokinetics. Also noted: species or system female BALB/c mice. As to conditions: female, BALB/c, plasma. On the procedure:
Single dose intravenous (IV) pharmacokinetic (PK) studies in male Sprague Dawley rats and IV and oral PK studies in female BALB/c mice were conducted at Monash University. […] Blood was sampled via a cannula implanted in the carotid artery (also on the day prior to dosing) at pre-determined time points up to 24 h post-dose. Samples were transferred to vials containing heparin as an anticoagulant, gently mixed and centrifuged, and plasma separated for subsequent quantitative analysis using LC-MS. […] A dose of 25 mg/kg prepared in an aqueous suspension vehicle containing 0.5% hydroxypropyl methylcellulose, 0.5% benzyl alcohol and 0.4% polysorbate 80 (0.2 mL per mouse) was also dosed via oral gavage. Mouse blood was sampled via submandibular bleed up to 24 h post-dose (n=2 mice per time point, n=3 samples per mouse) into vials containing heparin and plasma was separated for quantitative analysis as described above.
Additional PK studies were also conducted by WuXi AppTec Co, Ltd (Shanghai, China) according to protocols reviewed and approved by DNDi. […] IV and oral formulations for rats, mice and hamsters were the same as described above. For dogs, the IV dose was administered in saline containing 2% DMSO and 3% Solutol HS-15 and the oral formulation was as described above. Blood was sampled up to 48 h post-dose into vials containing potassium EDTA as an anticoagulant, proteins were precipitated with acetonitrile and plasma was separated and assayed by LC-MS.
Single dose pharmacokinetic parameters (clearance, volume of distribution and half-life) were initially estimated using non-compartmental methods and oral bioavailability was calculated using the ratio of the dose corrected AUC after oral dosing relative to that after IV administration. […] Where a full concentration versus time profile was obtained from a single animal, parameters were estimated for each animal and mean and standard deviations calculated. In the case of mice where sparse sampling was used with multiple animals per time point, the data analysis was conducted using the mean profile.

A short description of data set [1]: In vitro metabolism, liver microsomes. Type of data set: in vitro ADME. The following applies: Rat. On the procedure:
Compounds were spiked into microsomal matrix prepared in 0.1 M pH 7.4 phosphate buffer containing magnesium chloride (final concentration of 3.3 mM), equilibrated for 5-10 min at 37°C. The reaction was initiated with the addition of freshly prepared solution of NADPH (final 1.3 mM). Control samples without co-factor were included for comparison. Aliquots of the reaction mixtures were taken periodically over 60 min and quenched with acetonitrile containing internal standards (metolazone and diazepam). Quenched samples were maintained on ice for approximately 20-30 min, centrifuged (for 5 min) and the supernatant was analyzed by LC-MS.
In vitro intrinsic clearance (CLint, μL/min/mg or μL/min/10^6 cells) values were calculated from the apparent first order degradation rate constant divided by the microsome concentration or the hepatocyte cell number (10^6 viable cells/mL). In vitro CLint values were then divided by the fraction unbound in the in vitro test system (to give CLint,u) and scaled to in vivo values (mL/min/kg) using published physiological scaling factors ([28]). Blood clearance in each species was then calculated using the well-stirred model of hepatic extraction (equation 2) where Q is the hepatic blood flow and fu,blood is calculated from fu,plasma/B:P: [2] PredictedCLblood=Q x fu,blood x CLint,u/Q+fu,blood x CLint,u […]
(Microsomes from liver hold many membrane-bound enzymes, among them those of drug oxidation.)

Data set [2] concerns L. infantum MHOM/MA67/ITMAP263. As to the kind of experiment: Acute mouse infection model (VL). It is filed as in vivo, BALB/c mice. The following applies: for decrease in the liver parasite burden compared to control animals: 5 consecutive days. The procedure:
(§1) Female 8−10-week-old BALB/c mice were infected with 2 x 10^7 L. donovani MHOM/ET/67/L82 (synonym HU3) or L. infantum MHOM/MA67/ITMAP263 amastigotes on day 0 and dispatched in groups of five individuals. […] Five days following end of treatment, all mice were sacrificed, and parasite burden was determined from smears of liver sections. Efficacy was expressed as the mean percentage load reduction compared to untreated (vehicle-only) control animals. Reference drugs miltefosine and/or AmBisome were used as positive controls and comparators.

Data set [3] concerns L. donovani MHOM/ET/67/L82 (synonym HU3). Kind of data set: Acute mouse infection model (VL). Type of data set: in vivo, BALB/c mice. As to conditions: 12.5 mg/kg bid or higher, 5-day dosing. On the procedure: as §1
Data set [4] can be described thus: Human PK and dose prediction (IVIVE, allometry, GastroPlus PBPK). As to conditions: plasma; for AUC: read-out: target cumulative total human plasma AUC. The text has this: Human plasma clearance was estimated by in vitro/in vivo extrapolation (IVIVE) of data from liver microsomes and allometry using the available in vivo preclinical data. In both cases, renal excretion of unchanged drug was assumed to be negligible (experimentally confirmed in the rat). […] Therefore, the “rule of exponents” was applied and the unbound clearance data were corrected for brain weight ([13]) as described previously ([14]).
The predicted clearance was input along with the data in Table S16 into a physiologically-based pharmacokinetic (PBPK) model (GastroPlus) to simulate human profiles under different dosing conditions. Given that there was no evidence of renal elimination in rats, it was assumed that clearance occurs solely by hepatic metabolism.
Human clearance was estimated using in vitro/in vivo extrapolation (IVIVE) of data obtained in liver microsomes and cryopreserved hepatocytes incorporating binding to microsomes and hepatocytes, plasma protein binding and the blood to plasma ratio. Scaling factors were as described previously ([12]) and liver blood flows were from Simcyp, assuming an average human body weight of 50 kg was assumed for the patient population ([12]).
The human dose predictions were based on PK and PD data in hamsters (best case scenario) and mice (worst case scenario) and unbound plasma concentrations that led to 95% efficacy. Human profiles were simulated at different doses and dosing regimens (qd or bid) over 10-14 days using GastroPlus (version 9.8, Simulations Plus, Inc., Lancaster, CA). The PBPK model used fasted physiological conditions and a 50 kg 30-year-old American male. The Berezhkovskiy perfusion limited model was used for Kp estimation ([30]). The estimated human plasma clearance was input directly into the model with the assumption that elimination occurred only by hepatic metabolism (consistent with data in rats).

Read-outs that look alike come from different tables or passages of the source.

Consider `Cc1[nH]c2nc(N)nc(C)c2c1-c1ccc(C#N)c2c1OCO2` [DNDI-6174], for which the clearance in “In vivo pharmacokinetics” (mouse, iv, 2 mg/kg, intravenous 2.0 mg/kg, read-out: Plasma CL) was 7.46 mL/min/kg; in data set [4] (from in vitro predictions, read-out: expected plasma clearance in humans), approximately 1 mL/min/kg. Also, the half-life in the data set “In vivo pharmacokinetics” (Mouse, intravenous 2.0 mg/kg, read-out: Apparent t1/2 (converted)) was 2 h. Further, in “In vivo pharmacokinetics” (Mouse, oral 25 mg/kg), the Cmax came to 10400 ng/mL. In addition, the Tmax in the data set “In vivo pharmacokinetics” (Mouse, oral 25 mg/kg) is 1 h. This compound also gave a bioavailability in “In vivo pharmacokinetics” (Mouse, oral 25 mg/kg) of more than 100%. The “Microsome predicted in vivo CLplasma” value in data set [1] is reported as 2.4 mL/min/kg. Further, the microsomal CLint at 0.5 µM in data set [1] (liver microsomes, pH 7.4, 2 independent experiments, read-out: In vitro Microsome CLint) came out at 10 ± 0.79 µL/min/mg. For the same compound, the “reduction in liver parasite burden” value in data set [2] (12.5 mg/kg bid or higher, 5-day dosing) is on record as more than 95%; in data set [3] it was more than 95%. Besides, the “decrease in the liver parasite burden compared to control animals” value in data set [2] (12.5 mg/kg bid) and in data set [2] (25 mg/kg qd) was more than 98% throughout. The exposure (AUC) was 460 µg·h/mL in data set [4] (male, oral, 27 ug) and 60 µg·h/mL in data set [4] (4 ug).

Broadly, the Cmax is the maximum level reached in the sampled fluid or tissue. A word on the Tmax: it is the time at which the peak concentration occurs. One may read the bioavailability as the share of a dose that reaches the circulation, judged against a reference dose that is usually intravenous. Read a high bioavailability as good availability. As usually defined, the AUC is concentration integrated over time.
